Laboratory results taken from ChEMBL document CHEMBL1201862, “PubChem BioAssay data set” (2004).
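Briefly, cells in 96-well plates were exposed to five compound concentrations for 48 h, and endpoints were estimated by linear interpolation. Abbreviation: GI50, concentration required for 50% inhibition of growth.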 Active and inactive are the calls of the source. No stated cut-off is given here; in the data, active = GI50 up to about 1.1 µM and inactive = higher.

Tests used:
Assay in all cases: DTP human tumour cell line panel, 48 h
786-0 = system: 786-0
CCRF-CEM = system: CCRF-CEM
DU-145 = system: DU-145
HCT-15 = system: HCT-15
HOP-62 = system: HOP-62
Hs-578T = system: Hs-578T
NCI-H23 = system: NCI-H23
NCI/ADR-RES = system: NCI/ADR-RES
OVCAR-3 = system: OVCAR-3
OVCAR-8 = system: OVCAR-8
PC-3 = system: PC-3
SF-295 = system: SF-295
SK-MEL-28 = system: SK-MEL-28
SK-OV-3 = system: SK-OV-3
SNB-19 = system: SNB-19
T47D = system: T47D
U-251 = system: U-251
NCI-H226 = system: NCI-H226

Structure (SMILES) | GI50 (786-0) | GI50 (CCRF-CEM) | GI50 (DU-145) | GI50 (HCT-15) [µM] | GI50 (HOP-62) | GI50 (Hs-578T) | GI50 (NCI-H23) | GI50 (NCI/ADR-RES) | GI50 (OVCAR-3) | GI50 (OVCAR-8) | GI50 (PC-3) | GI50 (SF-295) | GI50 (SK-MEL-28) | GI50 (SK-OV-3) | GI50 (SNB-19) | GI50 (T47D) | GI50 (U-251) | GI50 (NCI-H226)
Cc1cccc2c1CC1(Cc3c(C)cccc3C1=O)C2=O | > 100 µM (inactive) | > 100 µM (inactive) | > 100 µM (inactive) | > 100 | > 100 µM (inactive) | > 100 µM (inactive) | > 100 µM (inactive) | > 100 µM (inactive) | > 100 µM (inactive) | > 100 µM (inactive) | > 100 µM (inactive) | > 100 µM (inactive) | > 100 µM (inactive) | > 100 µM (inactive) | > 100 µM (inactive) | > 100 µM (inactive) | > 100 µM (inactive) | –
COC(Cc1ccccc1)NC(C)=O (stereo not drawn) | > 100 µM (inactive) | > 100 µM (inactive) | > 100 µM (inactive) | > 100 | > 100 µM (inactive) | > 100 µM (inactive) | > 100 µM (inactive) | > 100 µM (inactive) | > 100 µM (inactive) | > 100 µM (inactive) | > 100 µM (inactive) | > 100 µM (inactive) | > 100 µM (inactive) | > 100 µM (inactive) | > 100 µM (inactive) | > 100 µM (inactive) | > 100 µM (inactive) | > 100 µM (inactive)
CCOC(=O)C(NCc1ccc2c(c1)OCO2)(NC(=O)c1ccccc1)C(F)(F)F (stereo not drawn) | > 100 µM (inactive) | 19.5 µM (inactive) | > 100 µM (inactive) | > 100 | > 100 µM (inactive) | > 100 µM (inactive) | 62.2 µM (inactive) | 46.2 µM (inactive) | > 100 µM (inactive) | > 100 µM (inactive) | 65 µM (inactive) | > 100 µM (inactive) | > 100 µM (inactive) | > 100 µM (inactive) | > 100 µM (inactive) | 38.3 µM (inactive) | > 100 µM (inactive) | > 100 µM (inactive)
CC1=CC(=O)C2=C(C)CCC3C(C)C(=O)OC3C12 (stereo not drawn) | > 100 µM (inactive) | > 100 µM (inactive) | > 100 µM (inactive) | > 100 | > 100 µM (inactive) | > 100 µM (inactive) | > 100 µM (inactive) | > 100 µM (inactive) | > 100 µM (inactive) | > 100 µM (inactive) | > 100 µM (inactive) | > 100 µM (inactive) | > 100 µM (inactive) | > 100 µM (inactive) | > 100 µM (inactive) | > 100 µM (inactive) | > 100 µM (inactive) | > 100 µM (inactive)
CCN(CCCl)c1cc(CN(C)C)cc(NC(=O)c2ccc(C(=O)Nc3cccc(N(CCCl)NN)c3)cc2)c1 | < 0.01 µM (active) | < 0.01 µM (active) | 0.0234 µM (active) | 0.455 | 0.0453 µM (active) | 0.0186 µM (active) | 0.0242 µM (active) | 1.97 µM (inactive) | – | 0.0246 µM (active) | 0.0142 µM (active) | 0.0428 µM (active) | 0.192 µM (active) | 0.116 µM (active) | < 0.01 µM (active) | 0.0612 µM (active) | 0.0101 µM (active) | 0.145 µM (active)
CCOC(=O)c1c(C)n(-c2ccc(C)cc2)c(=O)c2ccccc2c(=O)c2c(=O)ccc(=O)c1=2 | 31 µM (inactive) | 6.34 µM (inactive) | 20 µM (inactive) | 14.3 | 18.8 µM (inactive) | 21.3 µM (inactive) | 15.5 µM (inactive) | 18.5 µM (inactive) | 16.2 µM (inactive) | 16.2 µM (inactive) | 17.1 µM (inactive) | – | 12.2 µM (inactive) | 27 µM (inactive) | 32.2 µM (inactive) | 20 µM (inactive) | 19.4 µM (inactive) | 18.2 µM (inactive)
Cn1ccnc1Sc1ccc(/C=N/NC(=O)c2ccccc2[N+](=O)[O-])cc1[N+](=O)[O-] | 68.9 µM (inactive) | 42.7 µM (inactive) | 66.7 µM (inactive) | 45.7 | > 100 µM (inactive) | > 100 µM (inactive) | 58.6 µM (inactive) | > 100 µM (inactive) | 98.9 µM (inactive) | > 100 µM (inactive) | 76 µM (inactive) | 83.8 µM (inactive) | > 100 µM (inactive) | > 100 µM (inactive) | > 100 µM (inactive) | 40.6 µM (inactive) | > 100 µM (inactive) | > 100 µM (inactive)
CCCC#CCOC(=O)c1cc([N+](=O)[O-])cc([N+](=O)[O-])c1 | > 100 µM (inactive) | > 100 µM (inactive) | > 100 µM (inactive) | > 100 | > 100 µM (inactive) | > 100 µM (inactive) | > 100 µM (inactive) | > 100 µM (inactive) | > 100 µM (inactive) | > 100 µM (inactive) | > 100 µM (inactive) | > 100 µM (inactive) | > 100 µM (inactive) | > 100 µM (inactive) | > 100 µM (inactive) | > 100 µM (inactive) | > 100 µM (inactive) | –
O=C(O)C(O)c1ccc(F)cc1 (stereo not drawn) | > 100 µM (inactive) | – | > 100 µM (inactive) | > 100 | > 100 µM (inactive) | > 100 µM (inactive) | > 100 µM (inactive) | > 100 µM (inactive) | > 100 µM (inactive) | > 100 µM (inactive) | > 100 µM (inactive) | > 100 µM (inactive) | > 100 µM (inactive) | > 100 µM (inactive) | > 100 µM (inactive) | > 100 µM (inactive) | > 100 µM (inactive) | –
O=C1c2cc3c(cc2CC12Cc1ccc4c(c1C2=O)CCCC4)CCCC3 (stereo not drawn) | 20.1 µM (inactive) | > 100 µM (inactive) | > 100 µM (inactive) | > 100 | 50.6 µM (inactive) | 61.7 µM (inactive) | 79.1 µM (inactive) | 44.7 µM (inactive) | 21.1 µM (inactive) | 67 µM (inactive) | > 100 µM (inactive) | 92.5 µM (inactive) | > 100 µM (inactive) | 32.8 µM (inactive) | 40.8 µM (inactive) | > 100 µM (inactive) | 24 µM (inactive) | –
COC(=NC(C)C)NC(C)C | > 100 µM (inactive) | > 100 µM (inactive) | > 100 µM (inactive) | > 100 | > 100 µM (inactive) | > 100 µM (inactive) | > 100 µM (inactive) | > 100 µM (inactive) | – | > 100 µM (inactive) | > 100 µM (inactive) | – | > 100 µM (inactive) | > 100 µM (inactive) | > 100 µM (inactive) | > 100 µM (inactive) | > 100 µM (inactive) | > 100 µM (inactive)
CC1CCc2sc3nc(S)n(C)c(=O)c3c2C1 (stereo not drawn) | 50.8 µM (inactive) | – | 50.8 µM (inactive) | 39.5 | 39.7 µM (inactive) | 78.2 µM (inactive) | 35.6 µM (inactive) | 36.1 µM (inactive) | 22.4 µM (inactive) | 39.5 µM (inactive) | 25.5 µM (inactive) | 31.1 µM (inactive) | 58.5 µM (inactive) | 81.3 µM (inactive) | 33.8 µM (inactive) | 48.5 µM (inactive) | 41.8 µM (inactive) | 26.7 µM (inactive)
COc1ccc(COCC[C@H](C)OC2OC(CO[Si](C)(C)C(C)(C)C)C(OC(=O)CCCN=[N+]=[N-])C(OC(=O)CCCN=[N+]=[N-])C2OC(=O)CCCN=[N+]=[N-])cc1 (stereo partly drawn) | 43.7 µM (inactive) | 17.5 µM (inactive) | > 100 µM (inactive) | 28.4 | 97.5 µM (inactive) | > 100 µM (inactive) | 31.8 µM (inactive) | 19.1 µM (inactive) | 61.8 µM (inactive) | 19.7 µM (inactive) | 28.6 µM (inactive) | 89.3 µM (inactive) | > 100 µM (inactive) | > 100 µM (inactive) | – | 31 µM (inactive) | 29.6 µM (inactive) | 8.39 µM (inactive)
c1ccc(C2=NCCc3cc4c(cc32)OCO4)cc1 | > 100 µM (inactive) | > 10 µM (inactive) | > 100 µM (inactive) | – | > 100 µM (inactive) | > 100 µM (inactive) | > 100 µM (inactive) | > 100 µM (inactive) | > 100 µM (inactive) | > 100 µM (inactive) | > 100 µM (inactive) | > 100 µM (inactive) | > 100 µM (inactive) | > 100 µM (inactive) | > 100 µM (inactive) | > 100 µM (inactive) | > 100 µM (inactive) | –
COc1cc2c3c(c1O)-c1c(ccc(OC)c1OC)CC3N(C)CC2 (stereo not drawn) | > 100 µM (inactive) | 91.4 µM (inactive) | > 100 µM (inactive) | > 100 | – | > 100 µM (inactive) | > 100 µM (inactive) | > 100 µM (inactive) | > 100 µM (inactive) | > 100 µM (inactive) | > 100 µM (inactive) | > 100 µM (inactive) | – | > 100 µM (inactive) | > 100 µM (inactive) | > 100 µM (inactive) | > 100 µM (inactive) | > 100 µM (inactive)
COc1cccc(CSCC(=O)O)c1 | > 100 µM (inactive) | – | > 100 µM (inactive) | > 100 | > 100 µM (inactive) | > 100 µM (inactive) | > 100 µM (inactive) | > 100 µM (inactive) | > 100 µM (inactive) | > 100 µM (inactive) | > 100 µM (inactive) | > 100 µM (inactive) | > 100 µM (inactive) | > 100 µM (inactive) | > 100 µM (inactive) | > 100 µM (inactive) | > 100 µM (inactive) | > 100 µM (inactive)
COc1cc(CNc2nc3cc(C(F)(F)F)ccc3nc2C)cc(OC)c1OC | > 10 µM (inactive) | 20.3 µM (inactive) | 26.4 µM (inactive) | 13.1 | 24.3 µM (inactive) | 13.5 µM (inactive) | 18.9 µM (inactive) | > 10 µM (inactive) | 25.2 µM (inactive) | 23.7 µM (inactive) | – | 19.1 µM (inactive) | 20.4 µM (inactive) | – | 35.1 µM (inactive) | 17.9 µM (inactive) | 15.3 µM (inactive) | > 10 µM (inactive)
